Results reported in the NIST ThermoML archive (doi:10.1016/j.jct.2017.05.041).
± gives the expanded uncertainty stated by the source.

Settings: 293 K; 101.33 kPa; Crystal; X-ray diffraction

NCC1(CC(=O)O)CCCCC1.O [2-(1-(aminomethyl)cyclohexyl)acetic acid monohydrate]
mass density: 1210 ± 12 kg/m3

NCC1(CC(=O)O)CCCCC1 [2-(1-(aminomethyl)cyclohexyl)acetic acid]
mass density: 1239 ± 10 kg/m3
